Patent US20230220047A1, “PEPTIDES FOR TREATMENT OF SEPSIS AND CANCER” (NORWEGIAN UNIVERSITY OF SCIENCE AND TECHNOLOGY (NTNU), priority 2020, published 2023)
“Also recorded” adds a separate entry of the source.

What was measured:
[1] = tested on: INA-6 multiple myeloma cells; assay: CellTiter-Glo cell viability assay, INA-6; type: cell-based, human; conditions: INA-6, 12.5 μM, 48 h
Experimental: (§1) Minor effects on the proliferation of the IH-1 and RPMI 8226 cell lines are seen. Cells were seeded at the level shown (left-hand bar of each set) then incubated in medium containing water, 10 μM penetratin or 10 μM P7-A4-Pen for 48 hr (except for INA-6 cells, which were incubated with 12.5 μM penetratin or 12.5 μM P7-A4-Pen). The number of viable cells was detected based on quantitation of ATP by luminescent signal in correlation to a standard curve prepared for each cell line. Results are based on 3-5 biological replicates for each condition, error bars show standard deviation of mean.
(§2) Multiple myeloma cells JJN-3 (DSMZ (Germany) no. ACC 541), ANBL-6 (Cellosaurus accession number CVCL_5425, obtained from Dr Diane Jelinek, Mayo Clinic, Rochester, Minn.), INA-6 (Cellosaurus accession number CVCL_5209, obtained from Dr M. Gramatzki, University of Erlangen-Nurnberg, Erlangen, Germany), RPMI-8226 (ATCC CCL-155), and IH-1 (Cellosaurus accession number CVCL_WZ44, established from the pleural effusion of a myeloma patient by Myeloma research group, IKOM, NTNU, Trondheim, Norway) were grown in RPMI-1640 (Sigma-Aldrich Norway, Oslo, Norway) supplemented with 100 nM penicillin/streptomycin and 10% FCS, and for ANBL-6, IH-1 and INA-6 cells 2 ng/ml recombinant IL-6 (Gibco, Thermo Fisher Scientific, Waltham, Mass., USA). […]

[2] = tested on: IH-1 multiple myeloma cells; assay: CellTiter-Glo cell viability assay, IH-1; type: cell-based, human; conditions: IH-1, 10 μM, 48 h
Experimental: as §1, §2

[3] = tested on: caspase-3; assay: Western blot for cleaved caspase-3 in JJN-3 cells; type: cell-based, human; conditions: JJN-3, 10 μM, 24 or 48 h
Experimental: JJN-3 cells were cultured for 24 or 48 hours with a control peptide (penetratin) or P7-A4-Pen, both at 10 μM. Cells were then lysed and lysates analysed by Western blot for cleaved caspase-3. Presence of cleaved (i.e. activated) caspase-3 is an indicator of apoptotic pathway activation. Cleaved caspase 3 was detected at high levels in the cells treated with P7-A4-Pen for 24 or 48 hours, and only at much lower levels in the cells treated with the control peptide. β-tubulin was detected as a loading control.
To investigate the mechanism of cytotoxicity mediated by the anti-proliferative peptides of the invention, the effect of the peptide P7-A4-Pen on caspase-3 activation in JJN-3 multiple myeloma cells was investigated. Caspase-3 is a pro-apoptotic caspase which is activated by cleavage by upstream caspases 8, 9 and 10 in response to cell death stimuli. Activated, cleaved caspase-3 cleaves and activates caspases 6 and 7, which induce apoptosis. JJN-3 multiple myeloma cells were incubated with 10 μM P7-A4-Pen or Penetratin control for 24 or 48 hours, lysed and analysed by Western blot to investigate caspase-3 activation (by blotting cleaved caspase-3).

[4] = tested on: E. coli particles; assay: Whole blood assay, E. coli particle stimulation; type: cell-based, human
[5] = target: T1, MyD88 signaling complex (Homo sapiens, UniProt P51617+Q99836+Q9NWZ3); assay: IRAK immunoprecipitations from LPS-stimulated human monocytes; type: cell-based; conditions: 15 μM, LPS 100 ng/ml
T1 construct: abrogated IRAK1, 2 and 4 recruitment to the MyD88 signaling complex in human monocytes; endogenous in cells; host or cells: primary human monocytes, LPS-stimulated
Experimental: Cell were pre-treated with Pen or P7-Pen (15 μM) for 30 min before addition of LPS (100 ng/ml) for specified time periods. Precipitations were performed using sheep anti-IRAK4 (A), anti-IRAK1 (B) and anti-IRAK2 (C) polyclonal antibodies covalently bound to magnetic beads, followed by Western blot analysis of lysates and precipitated proteins.
Pre-treatment of monocytes with P7-Pen abrogated recruitment of all tested IRAKs (1,2 and 4) to MyD88 (FIG. 28). This could be achieved by the peptide disrupting the Mal-MyD88 interaction, Mal-IRAK interactions or MyD88-IRAK interactions. Since IL-1R-initiated signalling through the Myddosome complex is not inhibited by the P7 peptide (see above), it is most likely that P7 interferes with Mal-IRAK interactions or the Mal-MyD88 interaction, rather than MyD88-IRAK interactions (since Mal is not involved in IL-1R signaling).

T1 sequence (Q99836 whole entry): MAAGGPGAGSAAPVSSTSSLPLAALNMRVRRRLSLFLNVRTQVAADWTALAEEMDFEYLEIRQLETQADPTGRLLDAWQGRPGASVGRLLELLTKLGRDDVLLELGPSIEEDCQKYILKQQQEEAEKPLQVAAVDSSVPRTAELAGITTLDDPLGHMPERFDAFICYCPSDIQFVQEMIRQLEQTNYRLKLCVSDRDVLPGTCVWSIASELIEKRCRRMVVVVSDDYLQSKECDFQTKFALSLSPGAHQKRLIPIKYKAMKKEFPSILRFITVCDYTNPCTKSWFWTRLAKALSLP
T1 sequence (P51617 whole entry): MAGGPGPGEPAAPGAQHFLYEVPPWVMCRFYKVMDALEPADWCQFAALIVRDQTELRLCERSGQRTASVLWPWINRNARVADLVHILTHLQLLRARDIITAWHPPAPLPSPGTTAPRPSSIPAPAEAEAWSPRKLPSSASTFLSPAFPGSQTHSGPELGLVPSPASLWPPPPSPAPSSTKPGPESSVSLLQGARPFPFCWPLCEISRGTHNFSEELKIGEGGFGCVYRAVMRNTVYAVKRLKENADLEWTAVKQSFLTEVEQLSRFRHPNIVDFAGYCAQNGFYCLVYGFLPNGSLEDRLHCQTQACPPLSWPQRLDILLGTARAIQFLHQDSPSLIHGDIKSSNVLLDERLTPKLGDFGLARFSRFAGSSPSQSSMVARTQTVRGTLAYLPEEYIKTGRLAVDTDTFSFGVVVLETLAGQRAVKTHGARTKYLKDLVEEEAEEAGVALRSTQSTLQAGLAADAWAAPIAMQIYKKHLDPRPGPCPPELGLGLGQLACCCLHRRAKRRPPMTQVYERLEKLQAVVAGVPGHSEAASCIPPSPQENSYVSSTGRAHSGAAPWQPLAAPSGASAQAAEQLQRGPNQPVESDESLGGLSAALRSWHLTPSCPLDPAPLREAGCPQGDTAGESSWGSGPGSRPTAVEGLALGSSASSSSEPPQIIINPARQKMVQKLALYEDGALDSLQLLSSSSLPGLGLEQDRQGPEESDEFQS
T1 sequence (Q9NWZ3 whole entry): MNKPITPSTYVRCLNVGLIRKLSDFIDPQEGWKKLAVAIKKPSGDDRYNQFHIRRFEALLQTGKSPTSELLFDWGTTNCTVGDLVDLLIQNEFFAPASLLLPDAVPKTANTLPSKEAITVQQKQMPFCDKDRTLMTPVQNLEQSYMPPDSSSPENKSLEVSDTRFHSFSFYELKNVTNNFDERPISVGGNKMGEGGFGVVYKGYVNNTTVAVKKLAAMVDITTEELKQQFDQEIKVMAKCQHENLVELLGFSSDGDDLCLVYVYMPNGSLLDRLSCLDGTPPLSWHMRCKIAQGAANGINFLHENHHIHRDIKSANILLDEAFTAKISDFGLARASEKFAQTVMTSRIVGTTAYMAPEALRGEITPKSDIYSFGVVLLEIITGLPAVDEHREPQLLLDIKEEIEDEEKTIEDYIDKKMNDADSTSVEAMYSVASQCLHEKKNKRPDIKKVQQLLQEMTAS

Ac-ITVAASVTLTGRQIKIWFQNRRMKWKK-NH2 [Peptide P7-A4-Pen]
cell proliferation [1]: strongly inhibited cell proliferation | cell proliferation [2]: Minor effects; also recorded: inhibited cell proliferation | caspase-3 cleavage [3]: strongly stimulates

Ac-ITVYASVTLTGRRRRRRRRRRR-NH2 [Peptide P7-Arg11]
E. coli-mediated IFNβ secretion by whole blood cells ([4]; pilot assay, 10 μM, E. coli particles): inhibited

Ac-ITVYASVTLTGRQIKIWFQNRRMKWKK-NH2 [Peptide P7-Pen]
E. coli-mediated IFNβ secretion ([4]; 20 μM, 4 h): significantly inhibiting | E. coli-mediated IL-1β secretion ([4]; 20 μM, 4 h): no significant effect | E. coli-mediated TNF production ([4]; 20 μM, 4 h): Significant inhibition | E. coli-mediated IL-6 ([4]; 20 μM, 4 h, not statistically significant): a degree of inhibition | recruitment of IRAKs (1, 2 and 4) to MyD88 [5]: abrogated
